In ChEMBL document CHEMBL1201862, “PubChem BioAssay data set” (2004):
The source made the active and inactive calls.

Key:
Type in all cases: functional
[1] = molecular target: T1, C-C chemokine receptor type 6 (Homo sapiens, UniProt P51684); assay: CCR6 receptor antagonists, dose response, cell-based, luminescent beta-arrestin readout (AID 504728)
T1 sequence (P51684 whole entry): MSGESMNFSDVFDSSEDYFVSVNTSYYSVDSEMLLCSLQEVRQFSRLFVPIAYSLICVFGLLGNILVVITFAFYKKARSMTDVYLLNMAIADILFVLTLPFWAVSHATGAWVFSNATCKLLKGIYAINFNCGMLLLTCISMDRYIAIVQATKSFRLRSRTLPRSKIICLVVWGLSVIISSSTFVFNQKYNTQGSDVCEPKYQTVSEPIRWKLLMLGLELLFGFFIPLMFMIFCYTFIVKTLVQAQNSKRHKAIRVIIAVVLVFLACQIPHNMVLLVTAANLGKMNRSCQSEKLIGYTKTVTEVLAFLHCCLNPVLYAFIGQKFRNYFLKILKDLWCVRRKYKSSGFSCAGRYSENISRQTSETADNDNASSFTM

Caspase-3 = molecular target: T2, Caspase-3 (Homo sapiens, UniProt P42574);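 further: Dose-response selectivity test against caspase-3 for candidate inhibitors of sentrin-specific proteases (SENPs)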
T2 sequence (P42574 whole entry): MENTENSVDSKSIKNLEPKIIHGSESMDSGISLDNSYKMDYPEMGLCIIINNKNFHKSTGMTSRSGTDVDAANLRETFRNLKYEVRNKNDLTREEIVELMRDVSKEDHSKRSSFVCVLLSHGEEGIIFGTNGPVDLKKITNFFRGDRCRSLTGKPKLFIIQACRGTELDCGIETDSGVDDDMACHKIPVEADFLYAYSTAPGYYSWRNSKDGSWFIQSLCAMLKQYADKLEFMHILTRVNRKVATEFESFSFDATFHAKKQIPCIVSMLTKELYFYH

[2] = molecular target: T3, Sentrin-specific protease 6 (Homo sapiens, UniProt Q9GZR1);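 further: Luminescence-based dose-response confirmatory assay of SENP6 inhibition, following up an ultra-high-throughput screen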
T3 sequence (Q9GZR1 whole entry): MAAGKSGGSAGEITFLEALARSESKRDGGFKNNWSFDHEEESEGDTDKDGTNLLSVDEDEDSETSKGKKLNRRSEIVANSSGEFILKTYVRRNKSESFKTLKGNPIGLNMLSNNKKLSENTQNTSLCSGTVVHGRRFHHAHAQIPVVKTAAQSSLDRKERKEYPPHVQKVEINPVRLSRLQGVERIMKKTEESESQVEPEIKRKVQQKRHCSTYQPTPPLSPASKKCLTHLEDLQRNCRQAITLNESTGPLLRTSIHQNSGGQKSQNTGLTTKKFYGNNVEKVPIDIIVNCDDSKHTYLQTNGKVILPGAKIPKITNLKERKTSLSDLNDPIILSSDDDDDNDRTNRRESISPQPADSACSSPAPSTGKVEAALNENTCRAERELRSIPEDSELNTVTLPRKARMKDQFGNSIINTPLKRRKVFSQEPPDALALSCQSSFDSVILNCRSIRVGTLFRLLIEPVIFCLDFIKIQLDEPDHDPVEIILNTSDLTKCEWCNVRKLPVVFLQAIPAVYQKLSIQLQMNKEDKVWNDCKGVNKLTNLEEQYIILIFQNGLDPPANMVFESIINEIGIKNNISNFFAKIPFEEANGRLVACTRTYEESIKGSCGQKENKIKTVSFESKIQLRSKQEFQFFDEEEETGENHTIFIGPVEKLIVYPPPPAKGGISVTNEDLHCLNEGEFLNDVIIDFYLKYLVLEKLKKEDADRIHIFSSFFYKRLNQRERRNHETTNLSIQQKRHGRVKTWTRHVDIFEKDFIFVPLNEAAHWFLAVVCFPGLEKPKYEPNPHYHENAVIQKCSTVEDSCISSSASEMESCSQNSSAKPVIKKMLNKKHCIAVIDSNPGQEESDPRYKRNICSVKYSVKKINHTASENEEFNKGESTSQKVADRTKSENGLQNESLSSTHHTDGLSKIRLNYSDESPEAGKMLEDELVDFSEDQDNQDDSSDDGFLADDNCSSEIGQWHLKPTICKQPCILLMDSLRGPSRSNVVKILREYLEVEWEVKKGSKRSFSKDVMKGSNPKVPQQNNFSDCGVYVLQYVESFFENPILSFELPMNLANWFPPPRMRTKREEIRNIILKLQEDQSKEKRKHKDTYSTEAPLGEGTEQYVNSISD

[3] = molecular target: T4, Sentrin-specific protease 8 (Homo sapiens, UniProt Q96LD8);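 further: luminescence read-out of SENP8 inhibition, dose-response confirmation following an ultra-high-throughput screen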
T4 sequence (Q96LD8 whole entry): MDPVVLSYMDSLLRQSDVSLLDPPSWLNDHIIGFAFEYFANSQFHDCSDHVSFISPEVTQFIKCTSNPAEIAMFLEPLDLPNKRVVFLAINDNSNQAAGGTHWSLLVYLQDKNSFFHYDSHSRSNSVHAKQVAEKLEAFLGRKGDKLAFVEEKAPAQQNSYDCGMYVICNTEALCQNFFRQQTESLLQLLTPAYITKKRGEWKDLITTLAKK

Vero = Vero cell cytotoxicity, cytotoxicity control for flavivirus capping enzyme inhibitors (AID 588742); conditions: Chlorocebus sabaeus
Protein RecA = molecular target: T5, Protein RecA (Mycobacterium tuberculosis, UniProt P9WHJ3); assay: Fluorescence Cell-Free Homogeneous Dose Retest to Identify Inhibitors of RecA-Intein Splicing Activity. [Related pubchem assays (depositor defined):AID2097, AID2223, AID489010, AID492950]
T5 sequence (P9WHJ3 whole entry): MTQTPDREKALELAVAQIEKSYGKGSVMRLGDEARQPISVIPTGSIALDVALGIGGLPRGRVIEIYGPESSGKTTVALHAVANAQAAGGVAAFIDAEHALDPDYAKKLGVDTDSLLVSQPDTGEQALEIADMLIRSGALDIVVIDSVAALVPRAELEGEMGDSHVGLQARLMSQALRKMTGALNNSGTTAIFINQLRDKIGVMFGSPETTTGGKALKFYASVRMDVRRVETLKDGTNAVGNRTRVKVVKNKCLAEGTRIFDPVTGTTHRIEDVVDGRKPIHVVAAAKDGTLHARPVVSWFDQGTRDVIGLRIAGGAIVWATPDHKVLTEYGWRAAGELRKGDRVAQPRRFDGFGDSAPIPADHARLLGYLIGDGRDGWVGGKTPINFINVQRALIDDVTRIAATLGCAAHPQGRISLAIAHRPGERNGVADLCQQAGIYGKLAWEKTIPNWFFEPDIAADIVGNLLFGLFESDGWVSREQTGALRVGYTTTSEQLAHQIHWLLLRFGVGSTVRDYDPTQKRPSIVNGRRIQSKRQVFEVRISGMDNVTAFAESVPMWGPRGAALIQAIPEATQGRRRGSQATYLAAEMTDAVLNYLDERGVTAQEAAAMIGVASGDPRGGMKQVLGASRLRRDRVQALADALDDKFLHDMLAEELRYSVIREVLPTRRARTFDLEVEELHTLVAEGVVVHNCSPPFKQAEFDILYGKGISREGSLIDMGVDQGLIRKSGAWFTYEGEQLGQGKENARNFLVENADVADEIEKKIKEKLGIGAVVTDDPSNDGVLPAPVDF

[4] = molecular target: Eukaryotic translation initiation factor 4E (Mus musculus, UniProt P63073); assay: eIF4E–eIF4G protein interaction inhibitors, dose response, biochemical, TR-FRET (AID 855);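 further: potency for disrupting eIF4E binding to eIF4GI seen as loss of FRET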
Sequence of Eukaryotic translation initiation factor 4E (P63073 whole entry): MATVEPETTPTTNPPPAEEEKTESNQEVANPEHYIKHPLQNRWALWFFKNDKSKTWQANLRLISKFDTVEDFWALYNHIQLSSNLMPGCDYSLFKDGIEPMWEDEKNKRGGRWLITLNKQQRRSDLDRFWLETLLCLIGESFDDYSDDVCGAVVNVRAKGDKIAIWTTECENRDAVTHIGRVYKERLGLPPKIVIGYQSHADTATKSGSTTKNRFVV

| Compound | IC50 [1] | IC50 (Caspase-3) | IC50 [2] | IC50 [3] | CC50 (Vero) | EC50 (Protein RecA) | IC50 [4] |
| --- | --- | --- | --- | --- | --- | --- | --- |
| COC(=O)c1ccccc1NC1=C/C(=N\S(=O)(=O)c2ccc(C(=O)O)cc2)c2ccccc2C1=O | > 66.6 µM (inactive) | – | – | – | – | – | – |
| NC(=O)C1CCN(C2=C(Cl)C(=O)c3ccccc3C2=O)CC1 | – | 7.35 µM (active) | 5.84 µM (active) | 8.88 µM (active) | 22.3 µM (active) | 0.146 µM (active) | – |
| O=c1c2ccccc2nc(/C=C/c2cccnc2)n1Cc1ccccc1 | – | – | – | – | – | 9.92 µM (active) | 5.77 µM (active) |
| O=C(O)c1ccc(N/N=C/c2ccc(OC(=O)c3ccccc3Cl)cc2)cc1 | – | 14.8 µM (active) | 2.16 µM (active) | 2.05 µM (active) | – | – | – |
